# System: C. albicans
# Assay: Test to evaluate pharmacological effect of rapamycin on animal (rabbit) model of keratomycosis
# Type: in vivo, New Zealand white rabbit
# Procedure: Test to evaluate pharmacological effect of rapamycin on animal (rabbit) model of keratomycosis
# 4% (w/w) rapamycin solution: This sample was prepared by dissolving rapamycin (Chunghwa Chemical Synthesis & Biotech Co., Ltd.) in a solution containing 4% (w/w) ethanol and […] polyethylene glycol 400.
# About 10 μL of a C. albicans solution (1×10^4 CFU/mL to 5×10^4 CFU/mL) was administered to the central corneal stroma of the right eye of a male New Zealand white rabbit of about 3 kg, and thereby an animal (rabbit) model of keratomycosis was prepared (Cornea, Volume 26, Number 3, 336-342, April 2007).
# For a base administered group (Group 1; N=4), 20 μL of a base (a solution containing 4% (w/w) ethanol and 96% (w/w) polyethylene glycol 400) was administered subconjunctivally on the day of induction.
# For a rapamycin administered group (Group 2; N=4), 20 μL of a 4% (w/w) rapamycin solution (0.88 mg rapamycin) was administered subconjunctivally on the day of induction.
smiles,measurement,setting,value
CO[C@H]1C[C@@H]2CC[C@@H](C)[C@@](O)(O2)C(=O)C(=O)N2CCCC[C@H]2C(=O)O[C@H]([C@H](C)C[C@@H]2CC[C@@H](O)[C@H](OC)C2)CC(=O)[C@H](C)/C=C(\C)[C@@H](O)[C@@H](OC)C(=O)[C@H](C)C[C@H](C)/C=C/C=C/C=C/1C [rapamycin],"clinical scores (McDonald-Shadduck scoring system, slit lamp)","20 μL of 4% (w/w) rapamycin solution (0.88 mg rapamycin), single subconjunctival administration on day of induction, right eye, post-induction days 2 and 5, compared with base administered group, N=4",lower than those of the base administered group
same,duration for which remarkable therapeutic effect on keratomycosis is maintained,"single subconjunctival administration of an injection containing rapamycin, polyethylene glycol and ethanol, rabbit C. albicans keratomycosis model",at least 5 days

# Source: patent US10166217B2, “Fungal keratitis prophylactic or therapeutic agent” (SANTEN PHARMACEUTICAL CO., LTD., priority 2015, dated 2019)
